Measurements from patent publication US6737383B1, “Herbicidal oxadiazolidines” (priority 1999, dated 2004).

Columns and labels:
[1] = test system: bedstraw; experiment: Test B pre/postemergence bedstraw; assay type: in vivo, Galium aparine
Outline: (§1)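 Herbicidal effect was estimated by eye on a ten-point control scale after plants spent twelve to sixteen days in a greenhouse following soil or foliar treatment. Foliar sprays targeted plants at one to four leaves; all doses were formulated in a non-phytotoxic solvent with surfactant.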

[2] = test system: blackgrass; experiment: Test B pre/postemergence blackgrass; assay type: in vivo, Alopecurus myosuroides
Outline: as §1

[3] = test system: velvetleaf; experiment: Test B pre/postemergence velvetleaf; assay type: in vivo, Abutilon theophrasti
Outline: as §1

[4] = test system: soybean; experiment: Test B pre/postemergence soybean; assay type: in vivo, Glycine max
Outline: as §1

[5] = Preemergence, Rate 62 g/ha, scale of 0 to 10 where 0 is no effect and 10 is complete control
[6] = Preemergence, Rate 500 g/ha, scale of 0 to 10 where 0 is no effect and 10 is complete control
[7] = Rate 62 g/ha, Postemergence, scale of 0 to 10 where 0 is no effect and 10 is complete control
[8] = Rate 125 g/ha, Postemergence, scale 0 to 10
[9] = Rate 125 g/ha, Preemergence, scale of 0 to 10 where 0 is no effect and 10 is complete control
[10] = Rate 500 g/ha, Postemergence, scale 0 to 10, 0 no effect, 10 complete control
[11] = Preemergence, Rate 250 g/ha, scale of 0 to 10 where 0 is no effect and 10 is complete control
[12] = Rate 62 g/ha, Postemergence, scale 0 to 10 (0 no effect, 10 complete control)
[13] = Rate 125 g/ha, Postemergence, scale of 0 to 10 where 0 is no effect and 10 is complete control
[14] = Rate 250 g/ha, Postemergence, scale of 0 to 10 where 0 is no effect and 10 is complete control
[15] = Postemergence, Rate 62 g/ha, scale 0 to 10, 0 is no effect, 10 is complete control
[16] = Postemergence, Rate 250 g/ha, scale 0 to 10, 0 no effect, 10 complete control
[17] = Preemergence, Rate 62 g/ha, scale 0 to 10, 0 is no effect, 10 is complete control
[18] = Preemergence, Rate 125 g/ha, scale 0 to 10 (0 no effect, 10 complete control)
[19] = Preemergence, Rate 500 g/ha, scale 0 (no effect) to 10 (complete control)
[20] = Rate 125 g/ha, Postemergence, scale 0 to 10, 0 no effect, 10 complete control
[21] = Rate 500 g/ha, Postemergence, 0 to 10 scale (0 no effect, 10 complete control)
[22] = Postemergence, Rate 125 g/ha, scale 0 to 10, 0 is no effect, 10 is complete control
[23] = Preemergence, Rate 62 g/ha, scale 0 to 10 (0 no effect, 10 complete control)
[24] = Postemergence, Rate 125 g/ha, scale of 0 to 10 where 0 is no effect and 10 is complete control
[25] = Postemergence, Rate 250 g/ha, scale of 0 to 10, 0 is no effect, 10 is complete control
[26] = Preemergence, Rate 125 g/ha, scale of 0 to 10 where 0 is no effect and 10 is complete control
[27] = Preemergence, Rate 250 g/ha, scale 0 to 10 (0 no effect, 10 complete control)
[28] = Rate 1000 g/ha, Preemergence, scale 0 to 10 (0 no effect, 10 complete control)
[29] = Postemergence, Rate 500 g/ha, scale of 0 to 10 where 0 is no effect and 10 is complete control
[30] = Postemergence, Rate 1000 g/ha, scale 0 to 10 (0 no effect, 10 complete control)

## CON=C(Cn1c(=O)on(C(=O)N(c2ccc(F)cc2)C(C)C)c1=O)C(F)(F)F [Compound 227]
[1]; [5]
  Bedstraw plant response rating: 0
[1]; [6]
  Plant response rating, Bedstraw: 3
[1]; [7]
  Bedstraw plant response rating: 7
[1]; [8]
  Bedstraw plant response rating: 8
[1]; [9]
  Bedstraw plant response rating: 0
[1]; Rate 250 g/ha, Postemergence
  Plant response rating (0 to 10; 0 is no effect, 10 is complete control), Bedstraw: 8
[1]; [10]
  Bedstraw plant response rating: 8
[2]; [5]
  Blackgrass plant response rating: 2
[2]; [11]
  Blackgrass plant response rating: 10
[2]; [6]
  Plant response rating, Blackgrass: 10
[2]; [7]
  Blackgrass plant response rating: 0
[2]; [8]
  Blackgrass plant response rating: 2
[2]; [9]
  Blackgrass plant response rating: 5
[2]; Rate 250 g/ha, Postemergence
  Plant response rating (0 to 10; 0 is no effect, 10 is complete control), Blackgrass: 7
[2]; [10]
  Blackgrass plant response rating: 7
[3]; [5]
  Velvetleaf plant response rating: 0
[3]; [11]
  Velvetleaf plant response rating: 0
[3]; [6]
  Plant response rating, Velvetleaf: 2
[3]; [7]
  Velvetleaf plant response rating: 0
[3]; [8]
  Velvetleaf plant response rating: 0
[3]; [9]
  Velvetleaf plant response rating: 0
[3]; Rate 250 g/ha, Postemergence
  Plant response rating (0 to 10; 0 is no effect, 10 is complete control), Velvetleaf: 0
[3]; [10]
  Velvetleaf plant response rating: 3
[4]; [5]
  Soybean plant response rating: 0
[4]; [11]
  Soybean plant response rating: 0
[4]; [6]
  Plant response rating, Soybean: 2
[4]; [7]
  Soybean plant response rating: 1
[4]; [8]
  Soybean plant response rating: 3
[4]; [9]
  Soybean plant response rating: 0
[4]; Rate 250 g/ha, Postemergence
  Plant response rating (0 to 10; 0 is no effect, 10 is complete control), Soybean: 4
[4]; [10]
  Soybean plant response rating: 5

## CCN(C(=O)n1oc(=O)n(Cc2ccco2)c1=O)C1CCCCC1 [Compound 312]
[1]; [5]
  Bedstraw plant response rating: 0
[1]; Preemergence, Rate 125 g/ha
  Bedstraw plant response rating (0 to 10 scale): 0
[1]; [11]
  Bedstraw plant response rating: 0
[1]; [6]
  Bedstraw plant response rating: 0
[1]; [12]
  Bedstraw plant response rating: 0
[1]; [13]
  Bedstraw plant response rating: 0
[1]; [14]
  Plant response rating, Bedstraw: 0
[2]; [5]
  Blackgrass plant response rating: 0
[2]; Preemergence, Rate 125 g/ha
  Blackgrass plant response rating (0 to 10 scale): 0
[2]; [11]
  Blackgrass plant response rating: 0
[2]; [6]
  Blackgrass plant response rating: 0
[2]; [12]
  Blackgrass plant response rating: 0
[2]; [13]
  Blackgrass plant response rating: 0
[2]; [14]
  Plant response rating, Blackgrass: 0
[2]; [10]
  Blackgrass plant response rating: 0
[3]; [5]
  Velvetleaf plant response rating: 0
[3]; Preemergence, Rate 125 g/ha
  Velvetleaf plant response rating (0 to 10 scale): 0
[3]; [11]
  Velvetleaf plant response rating: 0
[3]; [6]
  Velvetleaf plant response rating: 0
[3]; [12]
  Velvetleaf plant response rating: 0
[3]; [13]
  Velvetleaf plant response rating: 0
[3]; [14]
  Plant response rating, Velvetleaf: 0
[4]; [5]
  Soybean plant response rating: 0
[4]; Preemergence, Rate 125 g/ha
  Soybean plant response rating (0 to 10 scale): 0
[4]; [11]
  Soybean plant response rating: 0
[4]; [6]
  Soybean plant response rating: 0
[4]; [12]
  Soybean plant response rating: 2
[4]; [13]
  Soybean plant response rating: 2
[4]; [14]
  Plant response rating, Soybean: 3

## CC(C)N(C(=O)n1oc(=O)n(-c2c(Cl)cccc2Cl)c1=O)c1ccc(F)cc1 [Compound 19]
[1]; [15]
  Bedstraw plant response rating: 2
[1]; [16]
  Bedstraw plant response rating: 7
[1]; [17]
  Plant response rating, Bedstraw: 0
[1]; [18]
  Plant response rating, Bedstraw: 0
[1]; [11]
  Plant response rating, Bedstraw: 0
[1]; [19]
  Bedstraw plant response rating: 0
[1]; [20]
  Bedstraw plant response rating: 6
[1]; [21]
  Bedstraw plant response rating: 8
[2]; [15]
  Blackgrass plant response rating: 0
[2]; [16]
  Blackgrass plant response rating: 0
[2]; [17]
  Plant response rating, Blackgrass: 0
[2]; [18]
  Plant response rating, Blackgrass: 2
[2]; [11]
  Plant response rating, Blackgrass: 2
[2]; [19]
  Blackgrass plant response rating: 3
[2]; [20]
  Blackgrass plant response rating: 0
[2]; [21]
  Blackgrass plant response rating: 2
[3]; [15]
  Velvetleaf plant response rating: 0
[3]; [16]
  Velvetleaf plant response rating: 0
[3]; [17]
  Plant response rating, Velvetleaf: 0
[3]; [18]
  Plant response rating, Velvetleaf: 0
[3]; [11]
  Plant response rating, Velvetleaf: 0
[3]; [19]
  Velvetleaf plant response rating: 0
[3]; [20]
  Velvetleaf plant response rating: 0
[4]; [15]
  Soybean plant response rating: 2
[4]; [16]
  Soybean plant response rating: 3
[4]; [17]
  Plant response rating, Soybean: 0
[4]; [18]
  Plant response rating, Soybean: 0
[4]; [11]
  Plant response rating, Soybean: 0
[4]; [19]
  Soybean plant response rating: 0
[4]; [20]
  Soybean plant response rating: 3

## Cc1cccc(C(C)(C)C)c1-n1c(=O)on(C(=O)N(c2ccc(F)cc2)C(C)C)c1=O [Compound 359]
[1]; [22]
  Plant response rating, Bedstraw: 0
[1]; [23]
  Plant response rating, Bedstraw: 0
[1]; Preemergence, Rate 125 g/ha
  Bedstraw plant response rating (0 to 10 scale): 0
[1]; [11]
  Bedstraw plant response rating: 0
[1]; [6]
  Bedstraw plant response rating: 0
[1]; [7]
  Bedstraw plant response rating: 0
[1]; [14]
  Plant response rating, Bedstraw: 0
[1]; [10]
  Plant response rating, Bedstraw: 0
[2]; [22]
  Plant response rating, Blackgrass: 0
[2]; [23]
  Plant response rating, Blackgrass: 0
[2]; Preemergence, Rate 125 g/ha
  Blackgrass plant response rating (0 to 10 scale): 0
[2]; [11]
  Blackgrass plant response rating: 0
[2]; [6]
  Blackgrass plant response rating: 0
[2]; [7]
  Blackgrass plant response rating: 0
[2]; [14]
  Plant response rating, Blackgrass: 0
[2]; [10]
  Plant response rating, Blackgrass: 2
[3]; [22]
  Plant response rating, Velvetleaf: 0
[3]; [23]
  Plant response rating, Velvetleaf: 0
[3]; Preemergence, Rate 125 g/ha
  Velvetleaf plant response rating (0 to 10 scale): 0
[3]; [11]
  Velvetleaf plant response rating: 0
[3]; [6]
  Velvetleaf plant response rating: 0
[3]; [7]
  Velvetleaf plant response rating: 0
[3]; [10]
  Plant response rating, Velvetleaf: 2
[4]; [22]
  Plant response rating, Soybean: 2
[4]; [23]
  Plant response rating, Soybean: 0
[4]; Preemergence, Rate 125 g/ha
  Soybean plant response rating (0 to 10 scale): 0
[4]; [11]
  Soybean plant response rating: 0
[4]; [6]
  Soybean plant response rating: 0
[4]; [7]
  Soybean plant response rating: 0
[4]; [10]
  Plant response rating, Soybean: 3

## COC(=O)C(C)n1c(=O)on(C(=O)N(c2ccc(F)cc2)C(C)C)c1=O (stereo not shown) [Compound 616]
[1]; [24]
  Plant response rating, Bedstraw: 0
[1]; [25]
  Bedstraw plant response rating: 0
[1]; [26]
  Bedstraw plant response rating: 0
[1]; [27]
  Plant response rating, Bedstraw: 0
[1]; [6]
  Bedstraw plant response rating: 0
[1]; [28]
  Plant response rating, Bedstraw: 4
[2]; [24]
  Plant response rating, Blackgrass: 0
[2]; [25]
  Blackgrass plant response rating: 0
[2]; [29]
  Plant response rating, Blackgrass: 5
[2]; [26]
  Blackgrass plant response rating: 0
[2]; [27]
  Plant response rating, Blackgrass: 4
[2]; [6]
  Blackgrass plant response rating: 6
[2]; [28]
  Plant response rating, Blackgrass: 8
[3]; [24]
  Plant response rating, Velvetleaf: 0
[3]; [25]
  Velvetleaf plant response rating: 0
[3]; [29]
  Plant response rating, Velvetleaf: 1
[3]; [30]
  Velvetleaf plant response rating: 1
[3]; [26]
  Velvetleaf plant response rating: 0
[3]; [27]
  Plant response rating, Velvetleaf: 0
[3]; [6]
  Plant response rating, Velvetleaf: 4
[3]; [28]
  Plant response rating, Velvetleaf: 5
[4]; [25]
  Soybean plant response rating: 4
[4]; [29]
  Plant response rating, Soybean: 4
[4]; [30]
  Soybean plant response rating: 4
[4]; [26]
  Soybean plant response rating: 0
[4]; [27]
  Plant response rating, Soybean: 0
[4]; [6]
  Plant response rating, Soybean: 0
[4]; [28]
  Plant response rating, Soybean: 5

## CC(C)N(C(=O)n1oc(=O)n(C[Si](C)(C)C)c1=O)c1ccc(F)cc1 [Compound 294]
[1]; [5]
  Bedstraw plant response rating: 0
[1]; [11]
  Bedstraw plant response rating: 0
[1]; [6]
  Plant response rating, Bedstraw: 0
[1]; [12]
  Bedstraw plant response rating: 3
[1]; [13]
  Bedstraw plant response rating: 6
[1]; [9]
  Bedstraw plant response rating: 0
[1]; [14]
  Plant response rating, Bedstraw: 8
[1]; [10]
  Bedstraw plant response rating: 9
[2]; [5]
  Blackgrass plant response rating: 0
[2]; [11]
  Blackgrass plant response rating: 6
[2]; [6]
  Plant response rating, Blackgrass: 10
[2]; [12]
  Blackgrass plant response rating: 0
[2]; [13]
  Blackgrass plant response rating: 0
[2]; [9]
  Blackgrass plant response rating: 3
[2]; [14]
  Plant response rating, Blackgrass: 7
[2]; [10]
  Blackgrass plant response rating: 8
[3]; [5]
  Velvetleaf plant response rating: 0
[3]; [11]
  Velvetleaf plant response rating: 3
[3]; [6]
  Plant response rating, Velvetleaf: 4
[3]; [12]
  Velvetleaf plant response rating: 0
[3]; [13]
  Velvetleaf plant response rating: 0
[3]; [9]
  Velvetleaf plant response rating: 0
[3]; [14]
  Plant response rating, Velvetleaf: 0
[4]; [5]
  Soybean plant response rating: 0
[4]; [11]
  Soybean plant response rating: 0
[4]; [6]
  Plant response rating, Soybean: 0
[4]; [12]
  Soybean plant response rating: 2
[4]; [13]
  Soybean plant response rating: 3
[4]; [9]
  Soybean plant response rating: 0
[4]; [14]
  Plant response rating, Soybean: 4
